Where “and” joins values, the source holds several entries; their conditions need not be identical. Equal entries are not always repeated.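 How tested: cells in 96-well plates exposed to compound for 48 hours at five concentrations. GI50: concentration for 50% inhibition of growth. At the TGI there is no net growth.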

GI50 and TGI data for 36 molecules are collected here from PubChem BioAssay (NCI).

The subject of the assay is MDA-MB-468 breast. Nature of the assay: NCI-60 cell line screen, 48 h.

As to `CS(=O)(=O)c1ccc(Oc2cc(F)cc(C#N)c2)c2c1[C@H](O)[C@H](F)[C@@H]2F`, the GI50 is above 100 µM and the TGI was above 100 µM.
Turning to `Oc1c(CN2CCC(N3CCOCC3)CC2)cc(Cc2cc(CN3CCC(N4CCOCC4)CC3)c(O)c3ncccc23)c2cccnc12`, the GI50 is 1.7 µM and the TGI stood at 6.6 µM.
Turning to `O=C1/C(=C/c2cccc([N+](=O)[O-])c2)COc2ccc(O)c(O)c21`, the GI50 is 1.33 µM and the TGI worked out at 3.12 µM.
Regarding `CN1CCN(Cc2ccc(-c3cc4ncnc(Nc5ccc(OCc6cccc(F)c6)c(Cl)c5)c4s3)o2)CC1`, the GI50 was 0.292 µM and the TGI stood at 3.22 µM.
Take `CC/C=C\C[C@H](O)C/C=C1/C(=O)C=C[C@@H]1C/C=C\CCCC(=O)NC(C)C`: the GI50 was 1.67 µM and the TGI came out at 3.89 µM.
For `CC(=O)Oc1ccccc1C(=O)Nc1ccc(C(=O)/C=C/c2ccncc2)cc1`, in that order: 22.3 µM and 98 µM.
For the molecule `CCN1C(=O)C/C(=C\C(C)=O)Nc2ccccc21`, the GI50 is above 100 µM and the TGI is above 100 µM.
Turning to `CCN(CC)c1ccc(/C=N/NC(=O)c2ccc(S(N)(=O)=O)cc2)cc1`, the GI50 was 0.376 µM and the TGI was determined as 3.66 µM.
Take `O=C(Nc1ccc(-c2nc3cc4ccccc4cc3[nH]2)cc1)c1cccc(Br)c1`: the GI50 is 2.41 µM and the TGI is 6.54 µM.
Take `COc1cc(/C=C(/C)[N+](=O)[O-])ccc1O`: the GI50 was 1.58 µM and 1.78 µM; the TGI is 3.2 µM and 3.62 µM.
In the case of `CCn1c(=O)c(-c2ccn[nH]2)cc2c(C)nc(N)nc21`, the GI50 was 0.861 µM and the TGI is 6.25 µM.
Turning to `COc1ccc(C(=O)Cn2c(C(=O)c3ccc(OC)cc3)nc3ccccc32)cc1`, the GI50 was 0.431 µM and the TGI is above 22.8 µM.
Consider `Nc1c(C(=O)Nc2ccccc2)sc2nc3c(cc12)CCCCCC3`, for which the GI50 was 0.312 µM and the TGI was found to be 3.73 µM.
For `O=[N+]([O-])c1ccc(N2CCN(Cc3ccccc3)CC2)c2c1no[n+]2[O-]`, in that order: 1.12 µM and 2.68 µM.
For `O=C(Nc1ccc(Cl)c([N+](=O)[O-])c1)Nc1nc2ccccc2s1`, in that order: 3.53 µM and 9.76 µM.
`C=C1C(=O)O[C@H]2[C@H]1CC/C(COC(=O)C(=O)c1c[nH]c3ccccc13)=C\CC[C@@]1(C)O[C@@H]21`: the GI50 is 1.98 µM and the TGI was 3.84 µM.
For `O=C(Nc1ccc(S(=O)(=O)Nc2nccs2)cc1)c1cccnc1Nc1cccc(Cl)c1`, in that order: 13.9 µM and 52.2 µM.
Turning to `Cn1ccnc1C(=O)/C=C/c1ccc(CC(=O)Nc2ccc(Cl)cc2)cc1`, the GI50 is 1.03 µM and the TGI came out at 11.3 µM.
As to `COc1ccc(C(=O)Cn2c(C(=O)c3ccc(Cl)cc3)nc3ccccc32)cc1`, the GI50 was 6.13 µM and the TGI is above 100 µM.
On to `CC(C)C[C@@H](NC(=O)[C@@H](Cc1ccccc1)NC(=O)c1cnccn1)B1O[C@H]2[C@H](O)[C@@H](C(=O)NCCCC[C@@H]3NC(=O)[C@@H](Cc4ccccc4)NC(=O)[C@H](CC(=O)O)NC(=O)CNC(=O)[C@H](CCCN=C(N)N)NC3=O)O[C@@H](CN)[C@H]2O1`, for which the GI50 is 0.00293 µM and 0.005 µM; the TGI is 0.00906 µM and 0.00535 µM.
Turning to `Cc1ccc(Nc2nc(NCCO)c3ccccc3n2)cc1C`, the GI50 was 0.402 µM and the TGI was determined as 3.13 µM.
In the same order, the values of `CC(C)(C)Nc1nc2c(OCCc3ccccc3)cccn2c1-c1ccccc1Cl` are 2.5 µM and 9.17 µM.
Turning to `N#CC1=C(N)Oc2cc3c(cc2C1c1cccs1)OCO3` (configuration not stated), the GI50 was 0.219 µM and the TGI stood at 3.03 µM.
As to `CC(C)C[C@H](NC(=O)[C@H](Cc1ccccc1)n1ccc(N2CCCCC2)cc1=O)B(O)O`, the GI50 was 0.264 µM and the TGI came to 0.745 µM.
Regarding `OC(c1cc2cc(Br)ccc2c2cc(Br)ccc12)C1CCCCN1` (configuration not stated), the GI50 was 1.63 µM and the TGI is 3.08 µM.
On to `CCc1ccc(-c2nnc(COc3ccc(-c4nc5ccc(C)cc5[nH]4)cc3OC)o2)cc1`, for which the GI50 is 3.26 µM and the TGI is 16.3 µM.
On to `O=[N+]([O-])c1cnc(Sc2ccncn2)c([N+](=O)[O-])c1`, for which the GI50 was 1.72 µM and the TGI was 3.55 µM.
For `Cc1ccc(S(=O)ON2CCC(C(=O)O)(c3ccccc3)CC2)cc1` (configuration not stated), in that order: above 100 µM and above 100 µM.
Regarding `CNc1ccccc1C(=O)N/N=C/C=C/c1ccccc1`, the GI50 was 0.503 µM and the TGI is 15.1 µM.
In the same order, the values of `COc1ccc(CN2C(=O)/C(=C\c3cc(OC)c(OC)c(OC)c3)c3cc(OC)ccc32)cc1` are 1.94 µM and 4.52 µM.
In the same order, the values of `O=C(/C=C/c1ccco1)c1ccc(Nc2nc(Nc3ccc(F)cc3)nc(Nc3ccc(Cl)cc3)n2)cc1` are 22.8 µM and above 100 µM.
Regarding `COc1cccc(-c2nn(-c3ccccc3)cc2-c2ccnc(NCCNS(=O)(=O)c3ccc(Cl)cc3)c2)c1`, the GI50 is 3.9 µM and the TGI was 64.6 µM.
In the same order, the values of `Cn1c(C(N)=O)cc2c1-c1nc(Nc3ccccc3)ncc1CCC2` are 3.52 µM and 15 µM.
As for `CCCCCCCCCCCCN1C(C)=CS/C1=C\C=C\c1scc(C)[n+]1CCCCCCCCCCCC`, the GI50 is 0.251 µM and the TGI stood at 1.39 µM.
With `COC(=O)/C=C/c1cc(O)c2c(c1)C(C(=O)OC)C(c1ccc(O)c(O)c1)O2` (configuration not stated), the GI50 is 0.521 µM and 0.646 µM; the TGI was 9.94 µM and 11.3 µM.
Turning to `CCNC(=O)C[C@@H]1N=C(c2ccc(Cl)cc2)c2cc(OC)ccc2-n2c(C)nnc21`, the GI50 was 2.88 µM and the TGI is above 100 µM.
